Results as given in ChEMBL document CHEMBL1124213, “Structure-activity relationships among benextramine-related tetraamine disulfides. Chain length effect on alpha-adrenoreceptor blocking activity” (J Med Chem, 1988).

Key:
Rattus norvegicus [1] = species on record: Rattus norvegicus; test: Alpha-1-adrenoceptor blocking activity by antagonism of (-)-norepinephrine induced contractions of epididymal portion of rat vas deferens; Inactive up to a concentration of 20 uM; assay type: functional
[2] = Inhibition of ADP induced human blood platelet aggregation; assay type: functional
[3] = Inhibition of epinephrine induced human blood platelet aggregation; assay type: functional
Rattus norvegicus [4] = species on record: Rattus norvegicus; test: Alpha-1-adrenoceptor blocking activity by antagonism of (-)-norepinephrine induced contractions of epididymal portion of rat vas deferens; assay type: functional
[5] = biological target: Adrenergic receptor alpha (Rattus norvegicus) (UniProt P15823+P23944+P43140+P22086+P19328+P22909); test: Ratio of IC50 towards alpha1 to alpha-2 receptors of rat vas deferens; assay type: protein assay
[6] = biological target: T1, Adrenergic receptor alpha-2 (Rattus norvegicus, UniProt P22086+P19328+P22909); test: Alpha-2 adrenergic receptor blocking activity by antagonism of clonidine induced depression of twitch response of field stimulated prostatic portion of rat vas deferens; assay type: functional, tissue-based
T1 sequence (P22086 whole entry): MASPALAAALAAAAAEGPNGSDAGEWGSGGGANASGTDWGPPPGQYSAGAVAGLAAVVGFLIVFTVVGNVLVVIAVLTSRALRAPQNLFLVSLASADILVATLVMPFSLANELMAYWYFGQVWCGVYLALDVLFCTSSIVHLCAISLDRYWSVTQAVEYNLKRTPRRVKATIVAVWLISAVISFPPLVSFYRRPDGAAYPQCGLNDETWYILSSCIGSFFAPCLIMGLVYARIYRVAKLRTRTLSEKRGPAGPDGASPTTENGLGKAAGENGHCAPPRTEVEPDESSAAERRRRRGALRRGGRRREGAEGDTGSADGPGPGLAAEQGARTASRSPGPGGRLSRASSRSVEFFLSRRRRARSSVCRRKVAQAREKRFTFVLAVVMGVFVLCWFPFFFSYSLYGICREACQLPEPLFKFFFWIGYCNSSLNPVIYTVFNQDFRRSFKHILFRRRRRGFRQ
T1 sequence (P19328 whole entry): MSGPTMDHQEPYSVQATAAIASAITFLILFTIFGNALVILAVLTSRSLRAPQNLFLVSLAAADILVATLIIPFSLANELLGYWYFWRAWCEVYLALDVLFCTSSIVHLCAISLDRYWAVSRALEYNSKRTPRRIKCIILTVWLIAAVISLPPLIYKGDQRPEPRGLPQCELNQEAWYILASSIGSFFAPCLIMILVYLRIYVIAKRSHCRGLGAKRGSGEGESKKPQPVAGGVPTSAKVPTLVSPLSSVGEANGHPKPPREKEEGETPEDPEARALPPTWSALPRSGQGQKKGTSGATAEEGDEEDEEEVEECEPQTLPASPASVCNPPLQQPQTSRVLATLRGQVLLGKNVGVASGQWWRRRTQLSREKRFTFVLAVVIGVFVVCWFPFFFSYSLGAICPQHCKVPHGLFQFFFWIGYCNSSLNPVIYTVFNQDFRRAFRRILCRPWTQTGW
T1 sequence (P22909 whole entry): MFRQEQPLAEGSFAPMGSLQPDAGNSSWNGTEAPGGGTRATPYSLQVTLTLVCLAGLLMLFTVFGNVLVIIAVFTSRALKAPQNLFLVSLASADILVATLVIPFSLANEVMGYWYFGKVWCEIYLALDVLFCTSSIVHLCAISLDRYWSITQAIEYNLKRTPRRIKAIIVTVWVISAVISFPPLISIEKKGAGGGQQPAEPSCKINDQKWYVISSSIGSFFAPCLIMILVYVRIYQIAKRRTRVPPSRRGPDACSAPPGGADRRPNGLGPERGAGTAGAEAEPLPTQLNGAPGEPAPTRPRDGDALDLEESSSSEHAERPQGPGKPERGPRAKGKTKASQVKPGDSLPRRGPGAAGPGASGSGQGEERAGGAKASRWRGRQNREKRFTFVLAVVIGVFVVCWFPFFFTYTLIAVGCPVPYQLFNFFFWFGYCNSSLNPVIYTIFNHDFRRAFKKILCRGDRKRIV

| Compound | IC50 (Rattus norvegicus [1]) | IC50 [2] | IC50 [3] | IC50 (Rattus norvegicus [4]) | Selectivity [5] | IC50 [6] |
| --- | --- | --- | --- | --- | --- | --- |
| COc1ccccc1CNCCCCCCNCCCCCCNCCSSCCNCCCCCCNCCCCCCNCc1ccccc1OC.Cl.O | Not Active | – | – | – | – | – |
| COc1ccccc1CNCCCCCNCCSSCCNCCCCCNCc1ccccc1OC | – | 87 µM | 46 µM | 55.8 µM | 2.16 | 25.8 µM |
| COc1ccccc1CNCCCCCCCCCCCCN(C)CCSSCCN(C)CCCCCCCCCCCCNCc1ccccc1OC | – | – | – | 46.9 µM | < 2.35 | – |
| Nc1ncnc2c1ncn2[C@@H]1O[C@H](CO)[C@@H](O)[C@H]1O [ADENOSINE] | – | 2.5 µM | 1.8 µM | – | – | – |
| COc1ccccc1CNCCCCCCCCCCCCNCCSSCCNCCCCCCCCCCCCNCc1ccccc1OC | – | 2.1 µM | 1.7 µM | 8.23 µM | < 0.41 | – |
| COc1ccccc1CNCCCCCCCCCCCNCCSSCCNCCCCCCCCCCCNCc1ccccc1OC | – | 2.1 µM | 1.7 µM | 51.3 µM | < 2.57 | – |
| C1=CC(CNCCCCCCCCCCCCNCCSSCCNCCCCCCCCCCCCNCC2C=CC=N2)N=C1 (stereo unspecified) | – | – | – | 7.3 µM | < 0.37 | – |
| COc1ccccc1CNCCCCCCNCCSSCCNCCCCCCNCc1ccccc1OC [BENEXTRAMINE] | – | 97 µM | 31.3 µM | 7.55 µM | 9.2 | 0.82 µM |

More lines, now with the values ahead:

| IC50 (Rattus norvegicus [1]) | IC50 [2] | IC50 [3] | IC50 (Rattus norvegicus [4]) | Selectivity [5] | IC50 [6] | Compound |
| --- | --- | --- | --- | --- | --- | --- |
| – | 6 µM | 2.3 µM | 68 µM | < 3.4 | – | COc1ccccc1CNCCCCCCCCCNCCSSCCNCCCCCCCCCNCc1ccccc1OC |
| – | 41.3 µM | 20.6 µM | 55.2 µM | 53.1 | 1.04 µM | COc1ccccc1CNCCCCCCCNCCSSCCNCCCCCCCNCc1ccccc1OC |
| Not Active | – | – | – | – | – | COc1ccccc1CNCCCCCC(=O)NCCCCCCNCCSSCCNCCCCCCNC(=O)CCCCCNCc1ccccc1OC |
| – | 2.8 µM | 2.2 µM | 62.8 µM | < 3.14 | – | COc1ccccc1CNCCCCCCCCCCNCCSSCCNCCCCCCCCCCNCc1ccccc1OC |
| Not Active | – | – | – | – | – | COc1ccccc1CNCCCNCCCCCCCCNCCSSCCNCCCCCCCCNCCCNCc1ccccc1OC.Cl.O |
| Not Active | – | – | – | – | – | COc1ccccc1CNCCC(=O)NCCCCCCCCNCCSSCCNCCCCCCCCNC(=O)CCNCc1ccccc1OC |
| – | 22.7 µM | 5.4 µM | 98.5 µM | 80.7 | 1.22 µM | COc1ccccc1CNCCCCCCCCNCCSSCCNCCCCCCCCNCc1ccccc1OC |
